Reference: patent US9133199B2, “Pyrimidine derivatives as protein kinase inhibitors” (Cyclacel Limited, priority 2007, dated 2015)

Experiments:
AA (aurora kinase A) = AA (aurora kinase A) (Homo sapiens (Human), UniProt O14965); experiment: AA kinase inhibition (Table 1); format: biochemical; settings: Table 2; read-out: AurA IC50
[1] = Pharmacokinetics in fasted conscious CD-1 mice (iv and oral); format: in vivo; settings: compared to compounds A-G
Description: Preliminary investigations of the pharmacokinetics of selected compounds were carried out in fasted conscious CD-1 mice (25-30 g). Compounds were dosed as 1 mg/kg by intravenous administration or 5-10 mg/kg by oral route. Twenty one male mice per administration route (n=3 mice per time point) received dose solution by single bolus injection in the tail vein or by oral gavage. Blood samples were collected by cardiac puncture at 5, 15, 30, 60, 120, 240 and 360 min following iv administration and at 30, 60, 120, 240, 360, 480 and 1440 min following oral administration. Blood samples were collected into tubes containing the anti-coagulant lithium heparin, mixed and placed promptly on crushed ice. Plasma was derived from whole blood by centrifugation, frozen and stored at −80° C. prior to analysis. Plasma concentrations were determined by liquid chromatography-tandem mass spectrometry in electrospray positive mode (ESI LC/MS/MS) using calibration curves prepared in the appropriate matrix. The lower level of quantification (LLOQ) in all cases was ca. 5 ng/mL. Plasma concentration-time data was processed using the computer program WinNonLin version 5.2 from which areas under the plasma concentration-time curve (AUCall) were calculated by non-compartmental analysis using Model 201 (IV-bolus Input) or Model 200 (Extravascular Input).
FIG. 1 plots the area under the curve (AUC) for plasma concentration vs time for each compound tested. The dosing vehicle across these experiments remained constant (intravenous=citrate buffer pH 3, 1 mL/kg; oral=DMA/PEG400/10 mM Tartrate buffer, pH 4 (1:3:6), 5 ml/kg). FIG. 2 represents the same data in the form of oral bioavailability (% F) for each compound.

A2780/ADR cells = experiment: Cell viability assay (Alamar Blue, 72 hours), MDR line; format: cell-based, human; settings: paired parental and MDR tumour cell lines (A2780-A2780/ADR, MES-SA-MES-SA/Dx5)
Source text: In vitro cell viability assays have been used to measure the effect of drug accumulation in paired parental and drug resistant tumour cell lines. The pairs used are the human ovarian carcinoma A2780 line with its MDR counterpart A2780/ADR and the human uterine sarcoma MES-SA line with its MDR counterpart MES-SA/Dx5 [Wesolowska O., et al. (2005) Anticancer Res., 25, 383-389].
Method: Cultivated human tumour cells of the ovarian cell line A2780 and its doxorubicin-resistant pair, A2780/ADR and the uterine cell line MES-SA and its doxorubicin-resistant pair, MES-SA/DX5 were seeded at 3000 cells per well in Nunc 96-well tissue culture plates, 100 μl per well in DMEM media containing 10% foetal calf serum and penicillin/streptomycin. […] The plates were then read at 544/595 nm.
The amount of Alamar Blue reagent reacted represents the metabolic activity of the cells. […] The values were calculated from the average of three individual measurements with blank correction (medium-only control).
The assay was performed on the Biomek FxP, automation platform from Beckman Coulter. The plates were read on the Paradigm plate reader supplied by Beckman Coulter. Asymmetry ratios were calculated as the IC50 value of the compound in the drug resistant cells divided by the IC50 value in the parental cells. […]

AA (aurora kinase A), sequence (O14965 whole entry, species assumed): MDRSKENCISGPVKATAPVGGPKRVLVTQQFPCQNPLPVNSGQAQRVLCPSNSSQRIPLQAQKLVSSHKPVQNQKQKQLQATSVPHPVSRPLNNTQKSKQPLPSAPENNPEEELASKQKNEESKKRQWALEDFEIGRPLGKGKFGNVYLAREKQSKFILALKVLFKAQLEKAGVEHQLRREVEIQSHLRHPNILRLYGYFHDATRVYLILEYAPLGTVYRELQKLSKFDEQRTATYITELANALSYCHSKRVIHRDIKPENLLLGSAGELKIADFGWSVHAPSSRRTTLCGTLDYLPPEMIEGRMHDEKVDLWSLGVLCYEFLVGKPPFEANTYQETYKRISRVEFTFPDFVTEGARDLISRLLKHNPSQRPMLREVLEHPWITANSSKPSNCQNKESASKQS

Compound | IC50 (AA (aurora kinase A)) [µM] | oral bioavailability (% F) [1] | systemic exposure (AUC of plasma concentration vs time) ([1]; iv 1 mg/kg and oral 5-10 mg/kg) | cellular efflux (MDR/parental cell asymmetry) (A2780/ADR cells)
CN1C(=O)CCN(C2CCCC2)c2nc(Nc3cccc4cc[nH]c34)ncc21 [Compound 98, 9-Cyclopentyl-2-(1H-indol-7-ylamino)-5-methyl-5,7,8,9-tetra-hydro-pyrimido[4,5-b] [1,4]diazepin-6-one] | < 1 |  |  | 
CN1C(=O)CCN2CCC(=O)Nc3cccc(c3)Nc3ncc1c2n3 [Compound 282] | < 10 |  |  | 
COc1cc(C(=O)N[C@H]2CC[C@H](N3CCN(CC4CC4)CC3)CC2)ccc1Nc1ncc2c(n1)N(C1CCCC1)CC1(CC1)C(=O)N2C [Compound 371, 4-(9′-cyclopentyl-5′-methyl-6′-oxo-5′,6′,8′,9′-tetrahydrospiro[cyclopropane-1,7′-pyrimido[4,5-b][1,4]diazepine]-2′-ylamino)-N-((trans)-4-(4-(cyclopropylmethyl)piperazin-1-yl)cyclohexyl)-3-methoxybenzamide] |  | markedly superior | markedly superior | low cellular efflux
